This note sets out measurements from patent US20230091047A1 (priority 2019, published 2023).

Series [1] deals with HBV (HepG2.117 cell line, inducibly HBV producing). Briefly: Anti-HBV activity: intracellular HBV DNA by real-time PCR in HepG2.117 cells after 3 days of treatment. It is filed as cell-based, hepatitis B virus. As for the experimental part: The anti HBV activity was measured using the HepG2.117 cell line, a stable, inducibly HBV producing cell line, which replicates HBV in the absence of doxycycline (Tet-off system). The HepG2 cell line is available from ATCCR under number HB-8065. Transfection of the HepG2 cell line can be as described in Sun and Nassal 2006 Journal of Hepatology 45 (2006) 636-645 “Stable HepG2- and Huh7-based human hepatoma cell lines for efficient regulated expression of infectious hepatitis B virus”.
For the antiviral assay, HBV replication was induced, followed by a treatment with serially diluted compound in 96-well plates. After 3 days of treatment, the antiviral activity was determined by quantification of intracellular HBV DNA using real-time PCR and an HBV specific primer set and probe.
In general terms: Real-time PCR tracks product formation cycle by cycle.

The nature of series [2]: in vitro. It is filed as cell-based. To be noted: human, HepG2 or HepG2.117 cells, ATPlite, mean value. As for the experimental part:
Cytotoxicity of the compounds was tested using HepG2 or HepG2.117 cells, incubated for 3 or 4 days in the presence of compounds. The viability of the cells was assessed using the PERKIN ELMER ATPlite Luminescence Assay System.”
In general terms: Cellular ATP, detected with luciferase, serves as a proxy for viable cell number.

[3] abbreviates: Hepatitis B virus, HepG2.117, 72 h, HepG2.117 cells, 3 days of treatment, intracellular HBV DNA by real-time PCR; mean value; read-out: EC50 (μM, mean value).
The mark [4] stands for this setting: 3-days incubation (unmarked values).
[5] abbreviates: Hepatitis B virus, HepG2.117, 72 h, HepG2.117 cells, intracellular HBV DNA by real-time PCR, 3 days of treatment, mean value; read-out: EC50 (μM, mean value).
Where [6] appears, read: 3-days incubation (not marked with *).

Like-named read-outs stand apart in the source and are kept apart here. A value given as a limit tells only on which side of the number the result lay.

For `CC(C)Nc1nc2c(c(=O)n1-c1ccc(S(C)(=O)=O)cc1)CCN(C(=O)c1ccc(Cl)c(C3CC3)c1)C2` [Compound C225, 7-(4-chloro-3-cyclopropylbenzoyl)-3-[4-(methanesulfonyl)phenyl]-2-[(propan-2-yl)amino]-5,6,7,8-tetrahydropyrido[3,4-d]pyrimidin-4(3H)-one], in series [1] (setting [3]), the EC50 – broadly, the concentration at which the effect is half-maximal – worked out at 3.46 µM. The CC50 (in general, the concentration at which the toxic effect on the cells reaches its halfway point) at 3 days in series [2] (setting [4]) is greater than 50 µM.

As to `COc1ccc(CNc2nc3c(c(=O)n2-c2ccc(C(C)=O)cc2)CCN(C(=O)c2ccc(Cl)c(Cl)c2)C3)cc1` [Compound C126, 3-(4-acetylphenyl)-7-(3,4-dichlorobenzoyl)-2-{[(4-methoxyphenyl)methyl]amino}-5,6,7,8-tetrahydropyrido[3,4-d]pyrimidin-4(3H)-one], the EC50 in series [1] (setting [3]) was determined as 1.51 µM. This compound came in with a 50% cytotoxic concentration (CC50) at 3 days in series [2] (setting [4]) greater than 50 µM.

Consider `CC(C)Nc1nc2c(c(=O)n1-c1ccncc1)CCN(C(=O)c1ccc(Cl)c(Cl)c1)C2` [Compound C122, 7-(3,4-dichlorobenzoyl)-2-[(propan-2-yl)amino]-3-(pyridin-4-yl)-5,6,7,8-tetrahydropyrido[3,4-d]pyrimidin-4(3H)-one], for which the EC50 in series [1] (setting [3]) was 1.44 µM. Besides, the CC50 at 3 days in series [2] (setting [4]) is greater than 50 µM.

Take `CNC(=O)c1ccc(-n2c(NC(C)C)nc3c(c2=O)C[C@@H](C)N(C(=O)c2ccc(Cl)c(Cl)c2)C3)nn1` [Compound C281, 6-[(6R)-7-(3,4-dichlorobenzoyl)-6-methyl-4-oxo-2-[(propan-2-yl)amino]-5,6,7,8-tetrahydropyrido[3,4-d]pyrimidin-3(4H)-yl]-N-methylpyridazine-3-carboxamide]: the EC50 in series [1] (setting [3]) amounted to 0.16 µM. Moreover, in series [2] (setting [4]), the cytotoxic concentration (CC50) at 3 days was greater than 50 µM.

Consider `CNC(=O)c1ccc(-n2c(NC(C)C)nc3c(c2=O)C[C@@H](C)N(C(=O)c2cc4ccc(OC)cc4n2C)C3)cc1` [Compound C516], for which the EC50 in series [1] (setting [5]) is 2.68 µM. This compound also had a CC50 at 3 days in series [2] (setting [6]) greater than 50 µM.

For the compound `CNC(=O)c1ccc(-n2c(NCC(C)c3nncn3C)nc3c(c2=O)C[C@@H](C)N(C(=O)c2ccc(Cl)c(Cl)c2)C3)cc1` (stereo partly shown) [Compound C551], the concentration for a half-maximal effect (EC50) in series [1] (setting [5]) is greater than 25 µM. For the same compound, the CC50 at 3 days in series [2] (setting [6]) was greater than 50 µM.

Take `CNC(=O)c1ccc(-n2c(NC(C)C)nc3c(c2=O)C[C@@H](C)N(C(=O)c2cnc4ccccc4n2)C3)cc1` [Compound C675]: the EC50 in series [1] (setting [5]) is 1.6 µM. Further, the CC50 at 3 days in series [2] (setting [6]) was greater than 50 µM.

Consider `CNC(=O)c1ccc(-n2c(N[C@H](C)c3ccc(F)cc3F)nc3c(c2=O)C[C@@H](C)N(C(=O)c2ccc(Cl)c(Cl)c2)C3)cc1` (single isomer, unassigned) [Compound C689a], for which the EC50 in series [1] (setting [5]) was 0.2 µM. In series [2] (setting [6]), this compound gave a CC50 at 3 days of 16.7 µM.

Take `COc1ccc(CNc2nc3c(c(=O)[nH]2)CC(c2ccc(F)cc2)N(C(=O)c2ccc(Cl)c(Cl)c2)C3)cc1` (stereo not shown) [Compound C94, 7-(3,4-dichlorobenzoyl)-6-(4-fluorophenyl)-2-{[(4-methoxyphenyl)methyl]amino}-5,6,7,8-tetrahydropyrido[3,4-d]pyrimidin-4(3H)-one]: in series [1] (setting [3]), the EC50 worked out at 0.77 µM. In series [2] (setting [4]), this compound showed a CC50 at 3 days greater than 50 µM.

As to `CNC(=O)c1ccc(-n2c(NC(C)C)nc3c(c2=O)C[C@@H](C)N(C(=O)c2ccc(Cl)c(C(F)(F)F)c2)C3)c(C(F)F)c1` (single isomer, unassigned) [Compound C669a], the EC50 in series [1] (setting [5]) amounted to 0.02 µM. Besides, the CC50 at 3 days in series [2] (setting [6]) is 29.8 µM.

Take `CC(C)Nc1nc2c(c(=O)n1-c1ccc(S(C)(=O)=O)cc1)CCN(C(=O)c1[nH]c3ccccc3c1Cl)C2` [Compound C133, 7-(3-chloro-1H-indole-2-carbonyl)-3-[4-(methanesulfonyl)phenyl]-2-[(propan-2-yl)amino]-5,6,7,8-tetrahydropyrido[3,4-d]pyrimidin-4(3H)-one]: the EC50 in series [1] (setting [3]) was 1.94 µM. It took 28.3 µM to reach half-maximal cytotoxicity in series [2] (setting [4]) (CC50 at 3 days).

Consider `CNC(=O)c1ccc(-n2c(N3CCC[C@@H]3c3ccccc3)nc3c(c2=O)C[C@@H](C)N(C(=O)c2ccc(Cl)c(Cl)c2)C3)cc1` (single isomer, unassigned) [Compound C401a], for which the EC50 in series [1] (setting [5]) came to 0.36 µM. The compound also displayed a CC50 at 3 days in series [2] (setting [6]) of 13.8 µM.

With `CC(C)Nc1nc2c(c(=O)n1-c1ccc(S(C)(=O)=O)cc1)CCN(C(=O)c1ccc3sccc3c1)C2` [Compound C164, 7-(1-benzothiophene-5-carbonyl)-3-[4-(methanesulfonyl)phenyl]-2-[(propan-2-yl)amino]-5,6,7,8-tetrahydropyrido[3,4-d]pyrimidin-4(3H)-one], the EC50 in series [1] (setting [3]) was 0.24 µM. For the same compound, the CC50 at 3 days in series [2] (setting [4]) is greater than 50 µM.

Turning to `COc1ccccc1-n1c(NC2CCc3ccccc32)nc2c(c1=O)CCN(C(=O)c1ccc(Cl)c(Cl)c1)C2` (stereo not shown) [Compound C55, 7-(3,4-dichlorobenzoyl)-2-[(2,3-dihydro-1H-inden-1-yl)amino]-3-(2-methoxyphenyl)-5,6,7,8-tetrahydropyrido[3,4-d]pyrimidin-4(3H)-one], the EC50 in series [1] (setting [3]) was 22.1 µM. Further, in series [2] (setting [4]), half-maximal cytotoxicity (CC50 at 3 days) was put at 23.6 µM.

Regarding `CC(Nc1nc2c(c(=O)n1-c1ccc(S(C)(=O)=O)cc1)C[C@@H](C)N(C(=O)c1ccc(Cl)c(Cl)c1)C2)C1CC1` (stereo partly drawn) [Compound C199, (6R)-2-[(1-cyclopropylethyl)amino]-7-(3,4-dichlorobenzoyl)-3-[4-(methanesulfonyl)phenyl]-6-methyl-5,6,7,8-tetrahydropyrido[3,4-d]pyrimidin-4(3H)-one], in series [1] (setting [3]), the EC50 turned out to be 0.3 µM. Also, the CC50 at 3 days in series [2] (setting [4]) was greater than 50 µM.

`CNC(=O)c1ccc(-n2c(NC(C)C)nc3c(c2=O)C[C@@H](C)N(C(=O)c2ccc(Cl)cc2C(F)(F)F)C3)cc1` [Compound C648]: in series [1] (setting [5]), the EC50 worked out at 0.22 µM. The compound also yielded a CC50 at 3 days in series [2] (setting [6]) greater than 50 µM.

Regarding `CNC(=O)c1ccc(-n2c(NCC3(C)CC3)nc3c(c2=O)C[C@@H](C)N(C(=O)c2ccc(Cl)c(Cl)c2)C3)cc1` [Compound C381], the concentration for a half-maximal effect (EC50) in series [1] (setting [5]) came to 0.95 µM. In series [2] (setting [6]), this compound showed a CC50 at 3 days of 31.8 µM.

In the case of `CNC(=O)c1cnc(-n2c(NC(C)C)nc3c(c2=O)C[C@@H](C)N(C(=O)c2ccc(Cl)c(Cl)c2)C3)cn1` [Compound C288, 5-[(6R)-7-(3,4-dichlorobenzoyl)-6-methyl-4-oxo-2-[(propan-2-yl)amino]-5,6,7,8-tetrahydropyrido[3,4-d]pyrimidin-3(4H)-yl]-N-methylpyrazine-2-carboxamide], in series [1] (setting [3]), the EC50 was determined as 0.07 µM. In series [2] (setting [4]), this compound had a CC50 at 3 days greater than 50 µM.

With `CNC(=O)c1ccc(-n2c(NC(C)C)nc3c(c2=O)C[C@@H](C)N(C(=O)c2ccc(Cl)c(OC(F)(F)F)c2)C3)cc1` [Compound C635], in series [1] (setting [5]), the EC50 is 0.07 µM. In series [2] (setting [6]), this compound registered a CC50 at 3 days greater than 50 µM.

For the compound `CNC(=O)c1ccc(-n2c(NCc3cccc(-c4nnc[nH]4)c3)nc3c(c2=O)C[C@@H](C)N(C(=O)c2ccc(Cl)c(Cl)c2)C3)cc1` [Compound C597], in series [1] (setting [5]), the concentration giving a half-maximal response (EC50) came out at 9.49 µM. The same compound came in with a CC50 at 3 days in series [2] (setting [6]) greater than 50 µM.

On to `CNC(=O)c1ccc(-n2c(N[C@H](C)c3ccc(OC(F)F)cc3)nc3c(c2=O)C[C@@H](C)N(C(=O)c2ccc(Cl)c(Cl)c2)C3)cc1` [Compound C411a], for which the 50% effective concentration (EC50) in series [1] (HepG2.117 cells, intracellular HBV DNA by real-time PCR, 3 days of treatment, mean value; read-out: EC50 (μM, mean value)) was 1.02 µM. Moreover, it took 47.4 µM to reach half-maximal cytotoxicity in series [2] (setting [6]) (CC50 at 3 days).

On to `CNC(=O)c1nnc(-n2c(NC(C)C)nc3c(c2=O)C[C@@H](C)N(C(=O)c2ccc(Cl)c(Cl)c2)C3)[nH]1` [Compound C374], for which the concentration giving a half-maximal response (EC50) in series [1] (setting [3]) is 1.49 µM. For the same compound, the CC50 at 3 days in series [2] (setting [4]) was greater than 50 µM.

For the compound `CNC(=O)c1ccc(-n2c(NC(C)C)nc3c(c2=O)C[C@@H](C)N(C(=O)c2ccc(Br)c(F)c2OC)C3)cc1` [Compound C512], the EC50 in series [1] (setting [5]) was determined as 1.11 µM. In series [2] (setting [6]), the CC50 at 3 days is greater than 50 µM.
